One block for each compound: values may come before it.
Experiments:
[1] = biological target: T1, GDP-bound KRAS protein (aa 1-169), containing both G12C and C118A amino acid substitutions (Homo sapiens, UniProt P01116, C118A/G12C); assay: Coupled Nucleotide Exchange Assay (Table 15 conditions: 2 hours pre-incubation); format: biochemical; conditions: 2 hours compound pre-incubation (Table 15 conditions)
Method: (§1) For compounds in Table 15, the following assay conditions were employed:
Following compound pre-incubation, purified SOS protein (aa 564-1049) and GTP (Roche 10106399001) were added to the assay wells and incubated for an additional hour. […] The assay plates were then read on a PerkinElmer EnVision Multilabel Reader, using AlphaScreen® technology, and data were analyzed using a 4-parameter logistic model to calculate IC50 values.

[2] = system: Phosphorylation of ERK1/2 in A549 cells; assay: Phospho-ERK1/2 MSD Assay, A549 (Table 15 conditions: 4 hours compound treatment); format: cell-based; conditions: Homo sapiens, A549, 4 h, EGF stimulation, read-out: p-ERK IC50 (A549)
Method: as §1
(§2) Phospho-ERK1/2 MSD Assay: MIA PaCa-2 (ATCC® CRL-1420™) and A549 (ATCC® CCL-185™) cells were cultured in RPMI 1640 Medium (ThermoFisher Scientific 11875093) containing 10% fetal bovine serum (ThermoFisher Scientific 16000044) and 1× penicillin-streptomycin-glutamine (ThermoFisher Scientific 10378016). Sixteen hours prior to compound treatment, MIA PaCa-2 or A549 cells were seeded in 96-well cell culture plates at a density of 25,000 cells/well and incubated at 37° C., 5% CO2. A compound dose-response titration was diluted in growth media, added to appropriate wells of a cell culture plate, and then incubated at 37° C., 5% CO2 for 4 hours. Following compound treatment, cells were stimulated with 10 ng/mL EGF (Roche 11376454001) for 10 min, washed with ice-cold Dulbecco's phosphate-buffered saline, no Ca^2+ or Mg^2+ (ThermoFisher Scientific 14190144), and then lysed in RIP A buffer (50 mM Tris-HCl pH 7.5, 1% Igepal, 0.5% sodium deoxycholate, 150 mM NaCl, and 0.5% sodium dodecyl sulfate) containing protease inhibitors (Roche 4693132001) and phosphatase inhibitors (Roche 4906837001). Cell lysates were stored frozen at −80° C. overnight. Phosphorylation of ERK1/2 in compound-treated lysates was assayed using Phospho-ERK1/2 Whole Cell Lysate kits (Meso Scale Discovery K151DWD) according to the manufacturer's protocol. Assay plates were read on a Meso Scale Discovery Sector Imager 6000, and data were analyzed using a 4-parameter logistic model to calculate IC50 values.

[3] = system: Phosphorylation of ERK1/2 in MIA PaCa-2 cells; assay: Phospho-ERK1/2 MSD Assay, MIA PaCa-2 (Table 15 conditions: 4 hours compound treatment); format: cell-based; conditions: EGF stimulation, read-out: p-ERK IC50 (MIA PaCa-2)
Method: as §1, §2

[4] = system: Phosphorylation of ERK1/2 in MIA PaCa-2 cells; assay: Phospho-ERK1/2 MSD Assay, MIA PaCa-2 (Table 16 conditions: 2 hours compound treatment); format: cell-based; conditions: 10 ng/mL EGF for 10 min, read-out: p-ERK IC50 (MIA PaCa-2)
Method: (§3) For compounds in Table 16, the following assay conditions were employed:
Sixteen hours prior to compound treatment, MIA PaCa-2 or A549 cells were seeded in 96-well cell culture plates at a density of 25,000 cells/well and incubated at 37° C., 5% CO2. A compound dose-response titration was diluted in growth media, added to appropriate wells of a cell culture plate, and then incubated at 37° C., 5% CO2 for 2 hours. […] Phosphorylation of ERK1/2 in compound-treated lysates was assayed using Phospho-ERK1/2 Whole Cell Lysate kits (Meso Scale Discovery K151DWD) according to the manufacturer's protocol. Assay plates were read on a Meso Scale Discovery Sector Imager 6000, and data were analyzed using a 4-parameter logistic model to calculate IC50 values.

[5] = system: Phosphorylation of ERK1/2 in A549 cells; assay: Phospho-ERK1/2 MSD Assay, A549 (Table 16 conditions: 2 hours compound treatment); format: cell-based; conditions: Homo sapiens, 10 ng/mL EGF for 10 min, read-out: p-ERK IC50 (A549)
Method: as §3
as §2, with “for 2” for “for 4”, “4906837001). […]” for “4906837001). Cell lysates were stored frozen at −80° C. overnight. Phosphorylation of ERK1/2 in compound-treated lysates was assayed using Phospho-ERK1/2 Whole Cell Lysate kits (Meso Scale Discovery K151DWD) according to the manufacturer's protocol.”

[6] = biological target: T1, GDP-bound KRAS protein (aa 1-169), containing both G12C and C118A amino acid substitutions; assay: Coupled Nucleotide Exchange Assay (Table 16 conditions: 5 min pre-incubation); format: biochemical; conditions: 5 min compound pre-incubation; SOS-mediated nucleotide exchange, AlphaScreen
Method: as §3
The assay plates were then read on a PerkinElmer EnVision Multilabel Reader, using AlphaScreen® technology, and data were analyzed using a 4-parameter logistic model to calculate IC50 values.

T1 sequence (P01116 1-169 isoform P01116-2 G12C/C118A): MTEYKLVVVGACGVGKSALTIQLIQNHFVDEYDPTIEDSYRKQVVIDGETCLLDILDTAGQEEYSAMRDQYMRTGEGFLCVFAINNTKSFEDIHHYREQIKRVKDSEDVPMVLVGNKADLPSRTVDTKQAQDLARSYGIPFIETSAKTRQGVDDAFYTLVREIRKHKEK

SMILES: C=CC(=O)N1CCN(c2snc3c(F)c(-c4c(C)ccc5[nH]ncc45)c(Cl)cc23)C(C(F)F)C1 (racemic) [Example 2-8, 1-(4-(5-chloro-7-fluoro-6-(5-methyl-1H-indazol-4-yl)-2,1-benzothiazol-3-yl)-3-(difluoromethyl)-1-piperazinyl)-2-propen-1-one]
- Coupled exchange IC50 [1]: 0.361 µM
- IC50 [2]: > 100 µM

SMILES: C=CC(=O)N1CCN(c2nc(=O)n(-c3ccncc3C3CC3)c3cc(-c4c(O)cccc4F)c(Cl)cc23)[C@@H](C)C1 (single isomer, unassigned) [Example 9-7-2]
- IC50 [3]: 0.232 µM

SMILES: C=CC(=O)N1CCN(c2nnc(-c3c(C)ccc4[nH]ncc34)c3cc(-c4c(O)cccc4F)c(Cl)cc23)CC1 [Example 10-12, 1-(4-(7-chloro-6-(2-fluoro-6-hydroxyphenyl)-4-(5-methyl-1H-indazol-4-yl)-1-phthalazinyl)-1-piperazinyl)-2-propen-1-one]
- IC50 ([3]; Homo sapiens, MIA PaCa-2, 4 h): 22.6 µM

SMILES: C=CC(=O)N1CCN(c2nc(=O)n(-c3c(C)cccc3C(C)C)c3nc(-c4c(O)cccc4F)c(Cl)cc23)[C@@H](C)C1 [Example 39, 6-Chloro-7-(2-fluoro-6-hydroxyphenyl)-1-(2-methyl-6-(2-propanyl)phenyl)-4-((2S)-2-methyl-4-(2-propenoyl)-1-piperazinyl)pyrido[2,3-d]pyrimidin-2(1H)-one]
- IC50 ([4]; MIA PaCa-2 cells): 0.029 µM
- IC50 [5]: > 100 µM
- IC50 [6]: 0.063 µM

SMILES: C=CC(=O)N1CCN(c2nc(=O)n(-c3scnc3C(C)C)c3nc(-c4c(O)cccc4F)c(Cl)cc23)[C@@H](C)C1 [Example 48, 6-Chloro-7-(2-fluoro-6-hydroxyphenyl)-4-((2S)-2-methyl-4-(2-propenoyl)-1-piperazinyl)-1-(4-(2-propanyl)-1,3-thiazol-5-yl)pyrido[2,3-d]pyrimidin-2(1H)-one]
- IC50 ([4]; Homo sapiens, MIA PaCa-2, MIA PaCa-2 cells): 0.063 µM
- IC50 [5]: > 10 µM
- IC50 [6]: 0.081 µM

Now from value to compound:

- Coupled exchange IC50 [1]: 0.492 µM
- IC50 [2]: > 100 µM
SMILES: C=CC(=O)N1CCN(c2snc3c(F)c(-c4cc(O)cc5ccccc45)c(Cl)cc23)CC1CO (racemic) [Example 1-16, 1-(4-(5-chloro-7-fluoro-6-(3-hydroxy-1-naphthalenyl)-2,1-benzothiazol-3-yl)-2-(hydroxymethyl)-1-piperazinyl)-2-propen-1-one]

- Coupled exchange IC50 [1]: 1.73 µM
- IC50 ([3]; Homo sapiens, MIA PaCa-2, 4 h): 3.07 µM
- IC50 [2]: > 100 µM
SMILES: C=CC(=O)N1CCN(c2snc3c(F)c(-c4cc(O)cc5ccccc45)c(Cl)cc23)C(C(C)C)C1 (racemic) [Example 2-10, 1-(4-(5-chloro-7-fluoro-6-(3-hydroxy-1-naphthalenyl)-2,1-benzothiazol-3-yl)-3-(2-propanyl)-1-piperazinyl)-2-propen-1-one]

- Coupled exchange IC50 [1]: 0.180 µM
- IC50 [2]: > 100 µM
SMILES: C=CC(=O)N1CCN(c2snc3c(F)c(-c4cc(O)cc5ccccc45)c(Cl)cc23)C(CF)C1 (racemic) [Example 7-2, 1-(4-(5-chloro-7-fluoro-6-(3-hydroxy-1-naphthalenyl)-2,1-benzothiazol-3-yl)-3-(fluoromethyl)-1-piperazinyl)-2-propen-1-one]
